For one series, the system named is dKO mice. The series can be described thus: Maraviroc treatment of dystrophic dKO (YY1; mdx) and Ctrl mice, DMD mouse model. It is filed as in vivo. As to conditions: for voluntary exercise (running distance on exercise wheels): recorded daily for one week, FIG. 6. From the text:
The research object of this invention is based on a mouse model of human Duchenne muscular dystrophy (DMD), a congenital mutation in the muscular dystrophy protein leading to spontaneous periodic muscle damage and repair. Chronic inflammation and fibrosis are typical hallmarks of DMD and may contribute to impaired skeletal muscle regeneration. […] These YY1; mdx mice (so called double knock out dKO) display decreased body and muscle weight, severe inflammation and fibrosis, and reduced lifespan. As illustrated in FIGS. 1A-1D, the body weights are continuously monitored and measured at 3M, 5M and 7M intervals and the dKO mice show continuous weight loss compared to Ctrl mice (see FIG. 1A) as time progresses. Furthermore, the reduction in muscle weight (tibialis anterior) and thickness (diaphragm) is also observed over time in contrast to Ctrl mice (see FIG. 1B). […] Meanwhile, excessive inflammation is observed on the dKO muscles as shown by the amount of immune cells infiltration in the interstitial area (see FIG. 1C), along with aggravated fibrosis (detected by Masson's Trichrome staining, see FIG. 1D).
To test the therapeutic effect of Maraviroc on the dystrophic muscles, the above-described Ctrl and dKO mice are treated with dimethyl sulfoxide (DMSO) or Maraviroc respectively.
Next, the muscle morphology is evaluated on the above-treated four groups of mice.
Next it is examined if the treatment improves muscle functions by testing the muscle performance in exercises. Both endurance and voluntary exercises are employed. For endurance exercise, mice are first placed in a treadmill machine, where the bottom of the running track is equipped with an electric shock device to force the mice to continue running as illustrated in FIG. 5. The initial speed is set to 10 cm/s and increased by 5 cm/s every two minutes. By recording the running distance until the mice are exhausted, their endurance strength is determined. […] For voluntary exercise, the mice are placed in cages equipped with exercise wheels, which are connected to counters that accurately record the distance travelled by the mice on the wheels, as illustrated in FIG. 6. The mice are continuously housed in the cages for one week, and their exercise distance on the wheels is recorded daily.

The test system of series [1] is aged mice with sarcopenia. As to the kind of experiment: Maraviroc treatment of aged mice with sarcopenia. It is filed as in vivo, mouse. The conditions noted are these: 16-month-old mice, 2.5 mg/kg intraperitoneally twice a week for 6 months. Here is the method: Next, to further illustrate the possible application for treating other muscle degenerative diseases, the effectiveness of Maraviroc is tested in aged mice with sarcopenia. 3 pairs of 16-month-old mice are intraperitoneally injected with vehicle (5% DMSO) or Maraviroc (2.5 mg/kg) twice a week for 6 months, as shown in FIG. 7. […] Overall, the Maraviroc treatment delays muscle aging and rejuvenates the mice.

For series [2] the following is noted: Phase IIa study; cited from earlier work.
Setting [3] is: dKO mice, 60 ug in 5% DMSO intraperitoneally every two days for one month, FIG. 2.

For `Cc1nnc(C(C)C)n1[C@@H]1C[C@H]2CC[C@@H](C1)N2CC[C@H](NC(=O)C1CCC(F)(F)CC1)c1ccccc1` [Maraviroc], the “muscle morphology, immune cell infiltration and inflammation (H&E staining of TA muscles)” value in the series on dKO mice (Ctrl and dKO muscles, FIG. 3) is “improved morphology with reduced immune cell infiltration and inflammation”. In addition, the “effect on body weight of Ctrl mice” value in the series with dKO mice (Ctrl mice, 60 ug intraperitoneally every two days for one month, FIG. 2) is on record as “no obvious effect”. For the same compound, the “voluntary exercise (running distance on exercise wheels)” value in the series on dKO mice (Ctrl mice) is “high level of voluntary exercise”. Also, in the series on dKO mice (dKO mice, versus dKO mice treated with DMSO, FIG. 5), the “endurance strength (treadmill running distance until exhausted)” value is given as “significantly higher”. Moreover, in the series on dKO mice (setting [3]), the body weight entry is on record as “significantly restored” and the muscle weight result is reported as “significantly restored”. The “muscle fibrosis (Masson's Trichrome staining)” value in the series on dKO mice (dKO mice, FIG. 4) is “significantly alleviate”. In addition, the “voluntary exercise (running distance on exercise wheels)” value in the series with dKO mice (dKO mice) is on record as “consistent increase in running distance over time”. In addition, in series [1] (FIG. 8), the TA muscle weight entry was “restored”, the fiber size entry was “increased”, the inflammation entry was “attenuated” and the “muscle morphology (H&E staining)” value is listed as “remarkable improvement”. Further, in series [1] (FIG. 9), the “muscle functions (grip force and treadmill running)” value was “restored”. In series [1] (FIG. 10), the “number of FAPs and macrophages” value was “reduced number”; the “number of MuSCs” value is on record as “increased number”. Also, in series [2], the “efficacy in the treatment of RA” value was “no efficacy”.
